Measured values from patent US11155841B2, “Method for producing sphingoid base or sphingolipid” (AJINOMOTO CO., INC., priority 2015, dated 2021).

Assay: Phytosphingosine solubility with various cyclodextrins in aqueous solution
Assay type: physicochemical
Conditions: aqueous 2-hydroxypropyl-α-cyclodextrin solution, aqueous with cosolvent or surfactant or cyclodextrin, thermodynamic from solid; excess of pure phytosphingosine (20 g/l) incubated with 2-hydroxypropyl-α-cyclodextrin solution; quantified by LC-MS; read-out: Solubilized phytosphingosine in the supernatants
Protocol: Phytosphingosine amounts (mg/l) measured in supernatants after incubation of an excess of pure phytosphingosine (20 g/l) with each of the three types of cyclodextrin at various concentrations.
These experiments were conducted to determine if and to what extent cyclodextrins solubilized sphingoid bases. To that end, an excess of phytosphingosine was incubated with increasing concentrations of solutions of three different types of cyclodextrin species—α-cyclodextrin, 2-hydroxypropyl-α-cyclodextrin, 2-hydroxypropyl-β-cyclodextrin. Solubilized phytosphingosine in the supernatants were quantified by liquid chromatography-mass spectrometry (LC-MS) using standards prepared in the same cyclodextrin solutions.

solubility: > 9000 µg/mL
Structure (SMILES): CCCCCCCCCCCCCC[C@@H](O)[C@@H](O)[C@@H](N)CO [phytosphingosine]
